According to patent US20260232827A1, “ANTIBODY-DRUG CONJUGATES TARGETING NAPI2B AND METHODS OF USE” (Zymeworks BC Inc., priority 2023, published 2026):

Key:
Assay in all cases: Binding region mapping, flow cytometry on transfected HEK293-6e cells
Settings in all cases: 24 hours at 4° C.
[1] = biological target: T1, Construct 6 (human NaPi2b deletion, region 317-333) (Homo sapiens, UniProt O95436, DEL317-333)
T1 construct: host or cells: HEK293-6e
T1 sequence (O95436 with tags, fused parts or gaps DEL317-333): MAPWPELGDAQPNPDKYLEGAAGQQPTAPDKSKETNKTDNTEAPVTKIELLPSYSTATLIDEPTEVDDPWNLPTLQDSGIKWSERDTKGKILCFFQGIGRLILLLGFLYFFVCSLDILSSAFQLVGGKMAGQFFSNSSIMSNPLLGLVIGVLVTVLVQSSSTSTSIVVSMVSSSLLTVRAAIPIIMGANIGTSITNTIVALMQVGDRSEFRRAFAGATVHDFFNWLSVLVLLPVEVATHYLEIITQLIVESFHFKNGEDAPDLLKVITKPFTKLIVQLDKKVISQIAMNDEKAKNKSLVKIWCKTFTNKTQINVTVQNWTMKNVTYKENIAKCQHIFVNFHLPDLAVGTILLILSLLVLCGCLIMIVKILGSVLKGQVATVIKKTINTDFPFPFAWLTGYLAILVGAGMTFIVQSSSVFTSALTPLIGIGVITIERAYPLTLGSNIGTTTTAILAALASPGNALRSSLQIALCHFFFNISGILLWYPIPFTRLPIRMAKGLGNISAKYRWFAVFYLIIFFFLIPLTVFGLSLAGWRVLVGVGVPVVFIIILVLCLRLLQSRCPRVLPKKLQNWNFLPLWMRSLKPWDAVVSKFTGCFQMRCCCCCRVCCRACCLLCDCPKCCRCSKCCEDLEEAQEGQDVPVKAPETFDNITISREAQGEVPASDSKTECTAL

[2] = test system: Construct 3 (chimeric human NaPi2b, region 304-321)
[3] = test system: Construct 1 (chimeric human NaPi2b, region 239-259)

Substance: palivizumab [palivizumab (v21995)]
- Background-Subtracted AF647 Mean Fluorescence Intensity ([1]; antibody 2.0 nM): 11
- Background-Subtracted AF647 Mean Fluorescence Intensity ([1]; antibody 20.0 nM): 1
- Background-Subtracted AF647 Mean Fluorescence Intensity ([1]; antibody 200.0 nM): 2
- Background-Subtracted AF647 Mean Fluorescence Intensity ([2]; antibody 2.0 nM): 19
- Background-Subtracted AF647 Mean Fluorescence Intensity ([2]; antibody 20.0 nM): 39
- Background-Subtracted AF647 Mean Fluorescence Intensity ([2]; antibody 200.0 nM): -5
- Background-Subtracted AF647 Mean Fluorescence Intensity ([3]; antibody 2.0 nM): -30
- Background-Subtracted AF647 Mean Fluorescence Intensity ([3]; antibody 20.0 nM): -27
- Background-Subtracted AF647 Mean Fluorescence Intensity ([3]; antibody 200.0 nM): 12
